Measurements taken from ChEMBL document CHEMBL5724914, “Linking interpersonal differences in gut microbiota composition and drug biotransformation activity” (2024).

How the values were obtained:
[1] = human gut metagenome, 24 h, 2 µM
[2] = human gut metagenome, 24 h, 2 µM; remark: listed apart in the source
[3] = human gut metagenome, 24 h, 2 µM; remark: listed apart in the source
[4] = human gut metagenome, 24 h, 2 µM; remark: listed apart in the source
[5] = The drug is tested on WLS-069 corresponding to human gut metagenome with ENA study accession number: PRJEB37062 and ENA sample accession number: ERS12561748 for biotransformation under anaerobic condition. The drug concentrations were measured over 9 timepoints collected between 0 and 24 hours of incubation by liquid-chromatography-coupled mass spectrometry (LC–MS); conditions: 2 µM
[6] = The drug is tested on Z-008 corresponding to metagenome with ENA study accession number: PRJEB37062 and ENA sample accession number: ERS12561808 for biotransformation under anaerobic condition. The drug concentrations were measured over 9 timepoints collected between 0 and 24 hours of incubation by liquid-chromatography-coupled mass spectrometry (LC–MS); conditions: 2 µM
[7] = The drug is tested on Z-025 corresponding to rabbit gut metagenome with ENA study accession number: PRJEB37062 and ENA sample accession number: ERS12561824 for biotransformation under anaerobic condition. The drug concentrations were measured over 9 timepoints collected between 0 and 24 hours of incubation by liquid-chromatography-coupled mass spectrometry (LC–MS); conditions: 2 µM
[8] = The drug is tested on WLS-007 corresponding to human gut metagenome with ENA study accession number: PRJEB37062 and ENA sample accession number: ERS12561742 for biotransformation under anaerobic condition. The drug concentrations were measured over 9 timepoints collected between 0 and 24 hours of incubation by liquid-chromatography-coupled mass spectrometry (LC–MS); conditions: 2 µM
[9] = The drug is tested on WLS-082 corresponding to human gut metagenome with ENA study accession number: PRJEB37062 and ENA sample accession number: ERS12561751 for biotransformation under anaerobic condition. The drug concentrations were measured over 9 timepoints collected between 0 and 24 hours of incubation by liquid-chromatography-coupled mass spectrometry (LC–MS); conditions: 2 µM
[10] = The drug is tested on Z-013 corresponding to rabbit gut metagenome with ENA study accession number: PRJEB37062 and ENA sample accession number: ERS12561813 for biotransformation under anaerobic condition. The drug concentrations were measured over 9 timepoints collected between 0 and 24 hours of incubation by liquid-chromatography-coupled mass spectrometry (LC–MS); conditions: 2 µM
[11] = human gut metagenome, 24 h, 2 µM; remark: listed apart in the source
[12] = The drug is tested on Z-030 corresponding to mouse gut metagenome with ENA study accession number: PRJEB37062 and ENA sample accession number: ERS12561829 for biotransformation under anaerobic condition. The drug concentrations were measured over 9 timepoints collected between 0 and 24 hours of incubation by liquid-chromatography-coupled mass spectrometry (LC–MS); conditions: 2 µM
[13] = The drug is tested on WLS-027 corresponding to human gut metagenome with ENA study accession number: PRJEB37062 and ENA sample accession number: ERS12561744 for biotransformation under anaerobic condition. The drug concentrations were measured over 9 timepoints collected between 0 and 24 hours of incubation by liquid-chromatography-coupled mass spectrometry (LC–MS); conditions: 2 µM
[14] = The drug is tested on Z-014 corresponding to rat gut metagenome with ENA study accession number: PRJEB37062 and ENA sample accession number: ERS12561814 for biotransformation under anaerobic condition. The drug concentrations were measured over 9 timepoints collected between 0 and 24 hours of incubation by liquid-chromatography-coupled mass spectrometry (LC–MS); conditions: 2 µM
[15] = The drug is tested on WLS-010 corresponding to human gut metagenome with ENA study accession number: PRJEB37062 and ENA sample accession number: ERS12561743 for biotransformation under anaerobic condition. The drug concentrations were measured over 9 timepoints collected between 0 and 24 hours of incubation by liquid-chromatography-coupled mass spectrometry (LC–MS); conditions: 2 µM
[16] = The drug is tested on WLS-090 corresponding to human gut metagenome with ENA study accession number: PRJEB37062 and ENA sample accession number: ERS12561753 for biotransformation under anaerobic condition. The drug concentrations were measured over 9 timepoints collected between 0 and 24 hours of incubation by liquid-chromatography-coupled mass spectrometry (LC–MS); conditions: 2 µM
[17] = human gut metagenome, 24 h, 2 µM; remark: listed apart in the source
[18] = The drug is tested on WLS-370 corresponding to human gut metagenome with ENA study accession number: PRJEB37062 and ENA sample accession number: ERS12561793 for biotransformation under anaerobic condition. The drug concentrations were measured over 9 timepoints collected between 0 and 24 hours of incubation by liquid-chromatography-coupled mass spectrometry (LC–MS); conditions: 2 µM
[19] = human gut metagenome, 24 h, 2 µM; remark: listed apart in the source
[20] = human gut metagenome, 24 h, 2 µM; remark: listed apart in the source
Also: call rule not given here.

| SMILES | Bacterial Biotransformation [1] | Bacterial Biotransformation [2] | Bacterial Biotransformation [3] | Bacterial Biotransformation [4] | Bacterial Biotransformation [5] | Bacterial Biotransformation [6] | Bacterial Biotransformation [7] | Bacterial Biotransformation [8] | Bacterial Biotransformation [9] | Bacterial Biotransformation [10] | Bacterial Biotransformation [11] | Bacterial Biotransformation [12] | Bacterial Biotransformation [13] | Bacterial Biotransformation [14] | Bacterial Biotransformation [15] | Bacterial Biotransformation [16] | Bacterial Biotransformation [17] | Bacterial Biotransformation [18] | Bacterial Biotransformation [19] | Bacterial Biotransformation [20] |
| --- | --- | --- | --- | --- | --- | --- | --- | --- | --- | --- | --- | --- | --- | --- | --- | --- | --- | --- | --- | --- |
| CC(C)NCC(O)c1ccc(NS(C)(=O)=O)cc1 (stereo not given) [SOTALOL] | Compound NOT metabolized | Compound NOT metabolized | Compound NOT metabolized | Compound NOT metabolized | Compound NOT metabolized | Compound NOT metabolized | Compound NOT metabolized | Compound NOT metabolized | Compound NOT metabolized | Compound NOT metabolized | Compound NOT metabolized | Compound NOT metabolized | Compound NOT metabolized | Compound NOT metabolized | Compound NOT metabolized | Compound metabolized | Compound NOT metabolized | Compound NOT metabolized | Compound NOT metabolized | Compound NOT metabolized |
| CCN1CCCC1CNC(=O)c1cc(S(N)(=O)=O)ccc1OC (stereo not given) [SULPIRIDE] | Compound metabolized | Compound metabolized | Compound metabolized | Compound NOT metabolized | Compound metabolized | Compound NOT metabolized | Compound NOT metabolized | Compound NOT metabolized | Compound NOT metabolized | Compound NOT metabolized | Compound NOT metabolized | Compound NOT metabolized | Compound metabolized | Compound NOT metabolized | Compound metabolized | Compound metabolized | Compound NOT metabolized | Compound NOT metabolized | Compound NOT metabolized | Compound metabolized |
| CNS(=O)(=O)Cc1ccc2[nH]cc(CCN(C)C)c2c1.O=C(O)CCC(=O)O [SUMATRIPTAN SUCCINATE] | Compound NOT metabolized | Compound metabolized | Compound metabolized | Compound NOT metabolized | Compound metabolized | Compound NOT metabolized | Compound NOT metabolized | Compound NOT metabolized | Compound NOT metabolized | Compound NOT metabolized | Compound NOT metabolized | Compound NOT metabolized | Compound NOT metabolized | Compound NOT metabolized | Compound NOT metabolized | Compound metabolized | Compound NOT metabolized | Compound NOT metabolized | Compound metabolized | Compound NOT metabolized |
| Nc1c2c(nc3ccccc13)CCCC2 [TACRINE] | Compound metabolized | Compound metabolized | Compound NOT metabolized | Compound NOT metabolized | Compound metabolized | Compound NOT metabolized | Compound NOT metabolized | Compound NOT metabolized | Compound NOT metabolized | Compound NOT metabolized | Compound NOT metabolized | Compound NOT metabolized | Compound NOT metabolized | Compound NOT metabolized | Compound NOT metabolized | Compound metabolized | Compound NOT metabolized | Compound NOT metabolized | Compound metabolized | Compound NOT metabolized |
| Cc1ccc(S(=O)(=O)NC(=O)NN2CCCCCC2)cc1 [TOLAZAMIDE] | Compound metabolized | Compound metabolized | Compound NOT metabolized | Compound metabolized | Compound metabolized | Compound NOT metabolized | Compound metabolized | Compound metabolized | Compound metabolized | Compound metabolized | Compound metabolized | Compound NOT metabolized | Compound metabolized | Compound NOT metabolized | Compound metabolized | Compound metabolized | Compound metabolized | Compound metabolized | Compound metabolized | Compound metabolized |
